Patent US4806361A, “Medicaments in sustained release unit dose form” (Sterling Drug Inc., priority 1984, dated 1989)

Tests used:
[1] = pH 6.0-7.0; cited from earlier work
[2] = Urinary recovery of active ingredient over 0-24 hours (HPLC); set-up: species or system human; settings: in vivo
Procedure: After measuring volume and pH, aliquots were stored below -15° C. pending assay for the active ingredient by a validated HPLC procedure.
The resulting linear regression was used to determine urine concentrations of the active ingredient in each sample. Recovered amounts of the active ingredient were then calculated from the urine volume for the collection period of each sample.

Row | Compound | Solubility [1] | Excretion [2] | Metabolism [2]
1 | OCCN(CCO)c1nc(N2CCCCC2)c2nc(N(CCO)CCO)nc(N3CCCCC3)c2n1 [dipyridamole] | insoluble |  | 
2 | Cc1[nH]c(=O)c(C#N)cc1-c1ccncc1 [1,2-dihydro-3-cyano-6-methyl-5-(4-pyridinyl)-2(1H)-pyridinone] |  | excreted in the urine | only slightly metabolized
